Biological target: T1, 5-hydroxytryptamine receptor 1A (Homo sapiens, UniProt P08908)
T1 sequence (P08908 whole entry): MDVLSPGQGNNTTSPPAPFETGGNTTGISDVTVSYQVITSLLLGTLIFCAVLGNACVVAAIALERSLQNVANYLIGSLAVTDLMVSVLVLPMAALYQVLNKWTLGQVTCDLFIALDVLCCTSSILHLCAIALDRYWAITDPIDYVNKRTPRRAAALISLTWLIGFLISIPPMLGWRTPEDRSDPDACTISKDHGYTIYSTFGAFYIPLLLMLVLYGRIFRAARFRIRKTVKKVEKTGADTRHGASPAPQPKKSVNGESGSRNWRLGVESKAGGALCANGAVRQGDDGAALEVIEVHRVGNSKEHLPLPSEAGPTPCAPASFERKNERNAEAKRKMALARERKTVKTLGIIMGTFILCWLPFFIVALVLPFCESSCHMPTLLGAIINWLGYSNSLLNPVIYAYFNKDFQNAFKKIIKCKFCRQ
Test: Displacement of [3H]8-OH-DPAT from 5HT1A receptor by vacuum filtration

Structure (SMILES): C[n+]1c2n(c(=O)c3ccccc31)CCc1c-2[nH]c2ccccc12 [DEHYDROEVODIAMINE]
- Ki: 36 µM

Structure (SMILES): CC1(C)O[C@H]2CC(=O)OC[C@]23[C@H]2CC[C@@]4(C)[C@H](c5ccoc5)OC(=O)[C@H]5O[C@]54[C@]2(C)C(=O)C[C@@H]13 [LIMONIN]
- Ki: > 100 µM

Structure (SMILES): COc1cc(-c2oc3cc(O)cc(O)c3c(=O)c2O[C@@H]2O[C@H](CO)[C@H](O)[C@H](O)[C@H]2O)ccc1O
- Ki: > 100 µM

Structure (SMILES): O=c1c2ccccc2nc2n1CCc1c-2[nH]c2ccccc12 [RUTAECARPINE]
- Ki: > 100 µM

Structure (SMILES): CNCC(O)c1ccc(O)cc1 (stereo not drawn) [OXEDRINE]
- Ki: 63 µM

Structure (SMILES): CN1c2ccccc2C(=O)N2CCc3c([nH]c4ccccc34)[C@H]21 [EVODIAMINE]
- Ki: > 100 µM

Structure (SMILES): O=c1c(O[C@@H]2O[C@H](CO)[C@H](O)[C@H](O)[C@H]2O)c(-c2ccc(O)c(O)c2)oc2cc(O)cc(O)c12 [HYPEROSIDE]
- Ki: > 100 µM

Structure (SMILES): CNc1ccccc1C(=O)N1CCc2c([nH]c3ccccc23)C1=O [RHETSININE]
- Ki: 32 µM
